From US20230339952A1, “MACROCYCLIC HETEROCYCLES AND USES THEREOF” (Kumquat Biosciences Inc., priority 2022, published 2023)
pIC50: −log10 of the molar value.

biological target: SOS1 (Homo sapiens (Human), UniProt Q07889); assay: Ras-SOS interaction assay (HTRF), K-Ras G13D utilized; type: binding; details: K-Ras G13D, read-out: SOS1 IC50
Description: For example, the equilibrium interaction of human SOS1 (hSOS1) with human wildtype Kras or K-Ras mutant (e.g., hK-Ras G12C mutant, or hK-Ras G12C) can be assessed as a proxy or an indication for a subject compound's ability to inhibit SOS. Detection of such interaction is achieved by measuring homogenous time-resolved fluorescence resonance energy transfer (HTRF) from (i) a fluorescence resonance energy transfer (FRET) donor (e.g., antiGST-Europium) that is bound to GST-tagged K-Ras G12C to (ii) a FRET acceptor (e.g., anti-6His-XL665) bound to a His-tagged hSOS1.
A Ras working solution is prepared in assay buffer containing typically 10 nM of the protein construct (e.g., GST-tagged hK-Ras G12C) and 2 nM of the FRET donor (e.g., antiGST-Eu(K) from Cisbio, France). A SOS1 working solution is prepared in assay buffer containing typically 10 nM of the protein construct (e.g., His-hSOS1) and 10 nM of the FRET acceptor (e.g., anti-6His-XL665 from Cisbio, France). An inhibitor control solution is prepared in assay buffer containing 10 nM of the FRET acceptor without the SOS1 protein.
A fixed reaction mixture with or without test compound is transferred into a 384-well plate. Ras working solution is added to all wells of the test plate. SOS1 working solution is added to all wells except for those that are subsequently filled with the inhibitor control solution. […] The ratiometric data (i.e., emission 2 divided by emission 1) is used to calculate IC50 values against SOS1 using GraphPad Prism (GraphPad software).

Sequence of SOS1 (Q07889 564-1049): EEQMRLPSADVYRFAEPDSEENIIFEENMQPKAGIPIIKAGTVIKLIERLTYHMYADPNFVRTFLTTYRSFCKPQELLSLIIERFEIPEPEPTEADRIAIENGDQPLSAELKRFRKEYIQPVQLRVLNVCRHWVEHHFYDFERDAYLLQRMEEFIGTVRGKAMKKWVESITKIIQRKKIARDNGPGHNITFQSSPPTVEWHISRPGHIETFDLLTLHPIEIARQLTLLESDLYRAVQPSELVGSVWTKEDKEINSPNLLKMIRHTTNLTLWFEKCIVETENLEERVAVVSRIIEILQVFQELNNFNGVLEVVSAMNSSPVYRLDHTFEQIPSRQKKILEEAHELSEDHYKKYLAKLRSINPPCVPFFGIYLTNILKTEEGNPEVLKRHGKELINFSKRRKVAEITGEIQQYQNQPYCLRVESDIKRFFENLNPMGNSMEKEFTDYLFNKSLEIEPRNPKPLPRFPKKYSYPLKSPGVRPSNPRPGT

pIC50, 5.30 to 7.00:
Cc1nc2c3cc(C4(C#N)CC4)c(=O)n(c3n1)CCC/C=C\COCC(F)(F)c1cccc(c1F)[C@@H](C)N2 [Compound 1, 1-((3R,Z)-4^2,5,5-trifluoro-1^2,3-dimethyl-1^7-oxo-1^7,1^8-dihydro-7-oxa-2-aza-1(4,8)-pyrido[2,3-d]pyrimidina-4(1,3)-benzenacyclotridecaphan-9-en-16-yl)cyclopropane-1-carbonitrile]
C[C@H]1Nc2nc(=O)n(c3c2cc(C2(C#N)CC2)c(=O)n3C)CCC/C=C\COCC(F)(F)c2cccc1c2F [Compound 2, 1-((1^3E,3R,9Z)-4^2,5,5-trifluoro-1^8,3-dimethyl-1^2,1^7-dioxo-1^1,1^2,1^7,1^8-tetrahydro-7-oxa-2-aza-1(4,1)-pyrido[2,3-d]pyrimidina-4(1,3)-benzenacyclotridecaphan-9-en-1^6-yl)cyclopropane-1-carbonitrile]
C[C@H]1Nc2nc(=O)n(c3c2cc(C2(C#N)CC2)c(=O)n3C)CCCCCOCC(F)(F)c2cccc1c2F [Compound 5, 1-((3R,E)-4^2,5,5-trifluoro-1^8,3-dimethyl-1^2,1^7-dioxo-1^1,1^2,1^7,1^8-tetrahydro-7-oxa-2-aza-1(4,1)-pyrido[2,3-d]pyrimidina-4(1,3)-benzenacyclododecaphane-1^6-yl)cyclopropane-1-carbonitrile]
Cc1nc2c3cc(C4CCS(=O)(=O)CC4)c(=O)n(c3n1)CCCCCCCN1CCC(CC1)C(F)(F)c1cccc(c1)[C@@H](C)N2 [Compound 7, (4R)-6^6-(1,1-dioxidotetrahydro-2H-thiopyran-4-yl)-2,2-difluoro-6^2,4-dimethyl-6^7,6^8-dihydro-5-aza-6(4,8)-pyrido[2,3-d]pyrimidina-1(4,1)-piperidina-3(1,3)-benzenacyclotridecaphan-6^7-one]
Cc1nc2c3cc(C4(C#N)CC4)c(=O)n(c3n1)CCCC/C=C\CC(C)(O)C(F)(F)c1cccc(c1)[C@@H](C)N2 (stereo partly drawn) [Compound 13, 1-((3R,Z)-5,5-difluoro-6-hydroxy-1^2,3,6-trimethyl-1^7-oxo-1^7,1^8-dihydro-2-aza-1(4,8)-pyrido[2,3-d]pyrimidina-4(1,3)-benzenacyclotridecaphan-8-en-1^6-yl)cyclopropane-1-carbonitrile]
COc1cc2nc(C)nc3c2cc1OCCOCCOCCOCCNC(=O)CCOCCNCc1ccccc1-c1cccc(c1)[C@@H](C)N3 [Compound 14, (R)-5^7-methoxy-5^2,3-dimethyl-6,9,12,15,22-pentaoxa-4,18,25-triaza-5(4,6)-quinazolina-1(1,2),2(1,3)-dibenzenacyclohexacosaphan-19-one]
Cc1nc2c3cc(C4(C#N)CC4)c(=O)n(c3n1)CCCCCC/C=C\CC(C)(O)C(F)(F)c1cccc(c1)[C@@H](C)N2 (stereo partly drawn) [Compound 18, 1-((3R,Z)-5,5-difluoro-6-hydroxy-1^2,3,6-trimethyl-1^7-oxo-1^7,1^8-dihydro-2-aza-1(4,8)-pyrido[2,3-d]pyrimidina-4(1,3)-benzenacyclopentadecaphan-8-en-1^6-yl)cyclopropane-1-carbonitrile]
C[C@H]1Nc2nc(=O)n(c3c2cc(C2(C#N)CC2)c(=O)n3C)CCCCOCC(F)(F)c2cccc1c2F [Compound 37, 1-((3R,E)-4^2,5,5-trifluoro-1^8,3-dimethyl-1^2,1^7-dioxo-1^1,1^2,1^7,1^8-tetrahydro-7-oxa-2-aza-1(4,1)-pyrido[2,3-d]pyrimidina-4(1,3)-benzenacycloundecaphane-1^6-yl)cyclopropane-1-carbonitrile]
C[C@H]1Nc2nc(=O)n(c3c2cc(C2(C#N)CC2)c(=O)n3C)C/C=C\COCC(F)(F)c2cccc1c2F [Compound 66, 1-((1^3E,3R,9Z)-4^2,5,5-trifluoro-1^8,3-dimethyl-1^2,1^7-dioxo-1^1,1^2,1^7,1^8-tetrahydro-7-oxa-2-aza-1(4,1)-pyrido[2,3-d]pyrimidina-4(1,3)-benzenacycloundecaphan-9-en-1^6-yl)cyclopropane-1-carbonitrile]
C[C@H]1Nc2nc(=O)n(c3c2cc(C2(C#N)CC2)c(=O)n3C)CCCC/C=C\COCC(F)(F)c2cccc1c2F [Compound 82, 1-((1^3E,3R,9Z)-4^2,5,5-trifluoro-1^8,3-dimethyl-1^2,1^7-dioxo-1^1,1^2,1^7,1^8-tetrahydro-7-oxa-2-aza-1(4,1)-pyrido[2,3-d]pyrimidina-4(1,3)-benzenacyclotetradecaphan-9-en-1^6-yl)cyclopropane-1-carbonitrile]
COc1cc2nc(C)nc3c2cc1OCCOCCOCCOCCOCCNCc1ccccc1-c1cccc(c1)C(C)N3 (stereo not drawn) [Compound 99, 5^7-methoxy-5^2,3-dimethyl-6,9,12,15,18-pentaoxa-4,21-diaza-5(4,6)-quinazolina-1(1,2),2(1,3)-dibenzenacyclodocosaphane]
C[C@H]1Nc2nc(=O)n(c3c2cc(C2(C#N)CC2)c(=O)n3C)CC/C=C\COCC(F)(F)c2cccc1c2F [Compound 102, 1-((1^3E,3R,9Z)-4^2,5,5-trifluoro-1^8,3-dimethyl-1^2,1^7-dioxo-1^1,1^2,1^7,1^8-tetrahydro-7-oxa-2-aza-1(4,1)-pyrido[2,3-d]pyrimidina-4(1,3)-benzenacyclododecaphan-9-en-1^6-yl)cyclopropane-1-carbonitrile]
Cc1nc2c3cc(C4(C#N)CC4)c(=O)n(c3n1)CCCCCCCCCC(C)(O)C(F)(F)c1cccc(c1)[C@@H](C)N2 (stereo partly drawn) [Compound 115, 1-((3R)-5,5-difluoro-6-hydroxy-1^2,3,6-trimethyl-1^7-oxo-1^7,1^8-dihydro-2-aza-1(4,8)-pyrido[2,3-d]pyrimidina-4(1,3)-benzenacyclopentadecaphane-1^6-yl)cyclopropane-1-carbonitrile]
Cc1nc2c3cc(C4(C#N)CC4)c(=O)n(c3n1)CCCCCCCCCOCC(F)(F)c1cccc(c1F)[C@@H](C)N2 [Compound 133, 1-((3R)-4^2,5,5-trifluoro-1^2,3-dimethyl-1^7-oxo-1^7,1^8-dihydro-7-oxa-2-aza-1(4,8)-pyrido[2,3-d]pyrimidina-4(1,3)-benzenacyclohexadecaphane-1^6-yl)cyclopropane-1-carbonitrile]
COc1cc2nc(C)nc3c2cc1OCCOCCOCCOCCOCCNC(=O)CCNCc1ccccc1C1=CC=C(S1)C(C)N3 (stereo not drawn) [Compound 136, 5^7-methoxy-5^2,3-dimethyl-6,9,12,15,18-pentaoxa-4,21,25-triaza-5(4,6)-quinazolina-2(2,5)-thiophena-1(1,2)-benzenacyclohexacosaphan-22-one]
Cc1nc2c3cc(C4(C#N)CC4)c(=O)n(c3n1)CCCCCCCC(C)(O)C(F)(F)c1cccc(c1)[C@@H](C)N2 (stereo partly drawn) [Compound 148, 1-((3R)-5,5-difluoro-6-hydroxy-1^2,3,6-trimethyl-1^7-oxo-1^7,1^8-dihydro-2-aza-1(4,8)-pyrido[2,3-d]pyrimidina-4(1,3)-benzenacyclotridecaphane-1^6-yl)cyclopropane-1-carbonitrile]

pIC50, > 7.00:
COc1cc2nc(C)nc3c2cc1OCCOCCOCCOCCOCCNC(=O)CCCCNCc1ccccc1C1=CC=C(S1)C(C)N3 (stereo not drawn) [Compound 45, 5^7-methoxy-5^2,3-dimethyl-6,9,12,15,18-pentaoxa-4,21,27-triaza-5(4,6)-quinazolina-2(2,5)-thiophena-1(1,2)-benzenacyclooctacosaphan-22-one]
COc1cc2nc(C)nc3c2cc1OCCOCCOCCOCCOCCNC(=O)CCCNCc1ccccc1C1=CC=C(S1)C(C)N3 (stereo not drawn) [Compound 51, 5^7-methoxy-5^2,3-dimethyl-6,9,12,15,18-pentaoxa-4,21,26-triaza-5(4,6)-quinazolina-2(2,5)-thiophena-1(1,2)-benzenacycloheptacosaphan-22-one]
C[C@H]1Nc2ncnc3c2cc(N2CCS(=O)(=O)CC2)c(=O)n3CCCOCCCCN2CCC(CC2)C(F)(F)c2cccc1c2F [Compound 69, (4R)-6^6-(1,1-dioxidothiomorpholino)-3^2,2,2-trifluoro-4-methyl-6^7,6^8-dihydro-10-oxa-5-aza-6(4,8)-pyrido[2,3-d]pyrimidina-1(4,1)-piperidina-3(1,3)-benzenacyclotetradecaphan-6^7-one]
C[C@H]1Nc2ncnc3c2cc(C2CCS(=O)(=O)CC2)c(=O)n3CCNC(=O)CCCN2CCC(CC2)C(F)(F)c2cccc1c2 [Compound 75, (4R)-6^6-(1,1-dioxidotetrahydro-2H-thiopyran-4-yl)-2,2-difluoro-4-methyl-6^7,6^8-dihydro-5,9-diaza-6(4,8)-pyrido[2,3-d]pyrimidina-1(4,1)-piperidina-3(1,3)-benzenacyclotridecaphane-6^7,10-dione]
C[C@H]1Nc2ncnc3c2cc(C2(C#N)CC2)c(=O)n3CC(=O)N(C)CCCCN2CCC(CC2(C)C)C(F)(F)c2cccc1c2 (stereo partly drawn) [Compound 93, 1-((4R)-2,2-difluoro-1^2,1^2,4,9-tetramethyl-6^7,8-dioxo-6^7,6^8-dihydro-5,9-diaza-6(4,8)-pyrido[2,3-d]pyrimidina-1(4,1)-piperidina-3(1,3)-benzenacyclotridecaphane-6^6-yl)cyclopropane-1-carbonitrile]
